{"source": "patent US20210128596A1", "about": "“COMPOSITIONS AND METHODS FOR TREATING SEPTIC CARDIOMYOPATHY” (UNIVERSITY OF PENNSYLVANIA, priority 2017, published 2021)", "key": {"C57BL/6 mice": {"tested_on": "C57BL/6 mice", "test": "Echocardiography after cecal ligation and puncture (CLP) or sham surgery", "type": "in vivo, mouse", "set-up": "LVID; d / EF / FS / LV Mass / LV Mass (Corrected) / LV Vol; d / IVS; d: unit not given here", "description": "Mice were either sham treated or subjected to cecal ligation puncture (CLP). SDG was administered either 2 hours prior to CLP or 6 hours following CLP. Echocardiograms from each group of mice was collected (FIG. 2A) and ejection fraction (EF, left) and fractional shortening (FS, right) was determined.\nAnimal care, cecal ligation and puncture procedure and echocardiography—Animal protocols were approved by the Temple University Institutional Animal Care and Use Committee and were carried out in accordance with the NIH guidelines for the care and use of laboratory animals. Wild type (WT) 8-12 week old C57BL/6 mice were purchased from Jackson labs. Cecal ligation and puncture (CLP) was performed as previously described. Mice were anesthetized with 3.5% inhaled isofluorane. Under aseptic conditions, a 1 to 2 cm midline laparotomy was performed and exposure of the cecum with adjoining intestine. The cecum was tightly ligated at its base below the ileo-cecal valve at a distance of lcm and was punctured twice with a 19-gauge needle. The length of the ligated cecum was defined as the distance from the distal end of cecum to ligation point, which affects the degree of disease severity. Fecal material was extruded from the punctured cecum, and it was returned to the peritoneal cavity. The peritoneum and the skin were closed with three sutures. The mice were resuscitated by injecting subcutaneously lml of pre-warmed 0.9% saline solution to induce the hyperdynamic phase of sepsis and for post-operative analgesia the mice received subcutaneously buprenorphine (0.05 mg·kg body weight). Mice received a single intraperitoneal injection of LGM2605 (100 mg/kg i.p.) that was administrated either 2 h prior to CLP or 6 h post CLP. At 12 h post CLP, two-dimensional echocardiography was performed on anesthetized mice (1.5% inhaled isoflurane) using a VisualSonics Vevo 2100 machine. Echocardiographic images were recorded in a digital format. A single observer blinded to the respective treatments of mice analyzed short-axis m-mode images by LV trace. The number of mice used for each experiment are mentioned in the figure legends."}, "AC16 cells": {"tested_on": "AC16 cells", "test": "Mitochondrial superoxide (MitoSOX Red) in LPS-treated AC16 cells", "type": "cell-based, human", "details": "LPS 12 h with SDG/LGM2605 (50 μM)", "description": "AC16 cells were either left untreated or treated for 12 hours with Liposaccharide (LPS) in the absence or presence of SDG, and subsequently stained with mitosox red.\nMeasurement of mitochondrial superoxide, mitochondrial membrane potential and mitochondrial number—AC16 cells were cultured in sterile cell culture dishware at approximately 80% confluence. After overnight incubation, cells were treated with LPS (1 μg/ml), LPS and LGM2605 (50 μM). LPS and LGM2605 were diluted in serum free media and the control group was incubated as well with serum free media. At 12 hours after the treatment the AC16 cells were loaded with mitochondrial superoxide indicator MitoSOX Red (5 μM, M36008, Molecular Probes) and incubated for 30 minutes in the dark. Excess MitoSOX Red was removed following three washes with PBS solution. MitoSOX Red fluorescence was recorded at 510 (excitation) and 580 nm (emission)."}, "[1]": {"tested_on": "ventricular tissue of septic mice", "test": "DHE staining of cardiac tissue (ROS)", "type": "in vivo, mouse", "details": "ventricular tissue 12 hours post-CLP, LGM2605 6 h post-CLP", "description": "DHE staining of cardiac tissue—Live myocardium was isolated from mice 12 hours after surgery and sectioned into 10 sections using a clean razor blade. Tissue was stained with 20 μM dihydroethidium (DHE) for 30 minutes at room temperature and imaged on a Zeiss Axio Observer Z1 fluorescent microscope at 490±10 nm excitation and 632±30 nm emission. Oxidized DHE fluoresces red and intercalates DNA. Individual nuclei were measured within each visual field using Zeiss Zen Blue software, and visual fields were averaged to measure mean fluorescence intensity for each mouse."}, "IL-1α, IL-1β, IL-6, TNFα": {"tested_on": "IL-1α, IL-1β, IL-6, TNFα", "test": "Cardiac mRNA expression of inflammatory cytokines", "type": "in vivo, mouse", "details": "6 hours or 12 hours post-CLP", "description": "(§1) RNA purification and gene expression analysis—Total RNA was purified from AC16 cells or hearts using the TRIzol reagent according to the instructions of the manufacturer (Invitrogen). DNase-treated RNA was used for cDNA synthesis using the ProtoScript II First Strand cDNA Synthesis Kit (New England Biolabs). Quantitative real-time PCR was performed with the Sybr Select Master Mix (Applied Biosystems). Incorporation of the SYBR green dye into the PCR products was monitored with the Applied Biosystems StepOnePlus Real-Time PCR System. Samples were normalized against mouse 36B4 or human rps13 RNA."}, "[2]": {"tested_on": "ventricular tissue of septic mice", "test": "Glucose and fatty-acid metabolism related gene expression in ventricular tissue", "type": "in vivo, mouse", "description": "as §1"}, "[3]": {"test": "Plasma glucose and triglyceride levels in septic mice", "type": "in vivo, mouse"}, "[4]": {"details": "CLP + LGM2605 (6 hr), 100 mg/kg i.p. 6 h post CLP, echo 12 h post CLP"}, "[5]": {"details": "CLP + LGM2605 (−2 hr), 100 mg/kg i.p. 2 h prior to CLP, echo 12 h post CLP"}, "[6]": {"details": "Sham + LGM2605 (6 hr), 100 mg/kg i.p., echo 12 h post-surgery"}, "[7]": {"details": "ventricular tissue 12 hours after CLP"}}, "note": "“Also recorded” adds a separate entry of the source.", "data": [{"smiles": "COc1cc(C[C@@H](CO[C@@H]2O[C@H](CO)[C@@H](O)[C@H](O)[C@H]2O)[C@H](CO[C@@H]2O[C@H](CO)[C@@H](O)[C@H](O)[C@H]2O)Cc2ccc(O)c(OC)c2)ccc1O", "note": "[LGM2605, secoisolariciresinol diglucoside]", "values": [{"measurement": "EF", "setting": "C57BL/6 mice; [4]", "result": 72.7}, {"measurement": "FS", "setting": "C57BL/6 mice; [4]", "result": 41.3}, {"measurement": "IVS; d", "setting": "C57BL/6 mice; [4]", "result": 1.4}, {"measurement": "IVS; s", "setting": "C57BL/6 mice; [4]", "result": 1.8}, {"measurement": "LV Mass", "setting": "C57BL/6 mice; [4]", "result": 129.2}, {"measurement": "LV Mass (Corrected)", "setting": "C57BL/6 mice; [4]", "result": 103.3}, {"measurement": "LV Vol; d", "setting": "C57BL/6 mice; [4]", "result": 30.2}, {"measurement": "LV Vol; s", "setting": "C57BL/6 mice; [4]", "result": 8.4}, {"measurement": "LVID; d", "setting": "C57BL/6 mice; [4]", "result": 2.8}, {"measurement": "LVID; s", "setting": "C57BL/6 mice; [4]", "result": 1.6}, {"measurement": "LVPW; d", "setting": "C57BL/6 mice; [4]", "result": 1.1}, {"measurement": "LVPW; s", "setting": "C57BL/6 mice; [4]", "result": 1.6}, {"measurement": "EF", "setting": "C57BL/6 mice; [5]", "result": 71.7}, {"measurement": "FS", "setting": "C57BL/6 mice; [5]", "result": 39.3}, {"measurement": "IVS; d", "setting": "C57BL/6 mice; [5]", "result": 1.3}, {"measurement": "IVS; s", "setting": "C57BL/6 mice; [5]", "result": 1.6}, {"measurement": "LV Mass", "setting": "C57BL/6 mice; [5]", "result": 97.2}, {"measurement": "LV Mass (Corrected)", "setting": "C57BL/6 mice; [5]", "result": 77.8}, {"measurement": "LV Vol; d", "setting": "C57BL/6 mice; [5]", "result": 18.6}, {"measurement": "LV Vol; s", "setting": "C57BL/6 mice; [5]", "result": 5.3}, {"measurement": "LVID; d", "setting": "C57BL/6 mice; [5]", "result": 2.3}, {"measurement": "LVID; s", "setting": "C57BL/6 mice; [5]", "result": 1.4}, {"measurement": "LVPW; d", "setting": "C57BL/6 mice; [5]", "result": 1.1}, {"measurement": "LVPW; s", "setting": "C57BL/6 mice; [5]", "result": 1.5}, {"measurement": "CLP-mediated cardiac dysfunction", "setting": "C57BL/6 mice; LGM2605 100 mg/kg i.p. 2 h prior to CLP or 6 h post-CLP", "result": "prevented CLP-mediated cardiac dysfunction"}, {"measurement": "cardiac fractional shortening", "setting": "C57BL/6 mice; SDG 100 mg/kg body weight, i.p., 6 hours post-CLP surgery", "result": "increased cardiac fractional shortening"}, {"measurement": "ejection fraction (EF) and fractional shortening (FS)", "setting": "C57BL/6 mice; SDG 2 hours prior to CLP or 6 hours following CLP", "result": "restores EF and to pre-CLP levels"}, {"measurement": "EF", "setting": "C57BL/6 mice; [6]", "result": 66.7}, {"measurement": "FS", "setting": "C57BL/6 mice; [6]", "result": 36.4}, {"measurement": "IVS; d", "setting": "C57BL/6 mice; [6]", "result": 1.1}, {"measurement": "IVS; s", "setting": "C57BL/6 mice; [6]", "result": 1.5}, {"measurement": "LV Mass", "setting": "C57BL/6 mice; [6]", "result": 146.7}, {"measurement": "LV Mass (Corrected)", "setting": "C57BL/6 mice; [6]", "result": 117.4}, {"measurement": "LV Vol; d", "setting": "C57BL/6 mice; [6]", "result": 55.4}, {"measurement": "LV Vol; s", "setting": "C57BL/6 mice; [6]", "result": 17.9}, {"measurement": "LVID; d", "setting": "C57BL/6 mice; [6]", "result": 3.6}, {"measurement": "LVID; s", "setting": "C57BL/6 mice; [6]", "result": 2.3}, {"measurement": "LVPW; d", "setting": "C57BL/6 mice; [6]", "result": 1.0}, {"measurement": "LVPW; s", "setting": "C57BL/6 mice; [6]", "result": 1.4}, {"measurement": "systolic function", "setting": "C57BL/6 mice; septic mice treated with LGM2605", "result": "normal systolic function"}, {"measurement": "mitochondrial superoxide levels (Mitosox Red staining)", "setting": "AC16 cells", "result": "suppressed by LGM2605"}, {"measurement": "mitochondrial superoxide levels (Mitosox Red staining)", "setting": "AC16 cells; listed as SDG", "result": "statistically significant decrease in superoxide levels in LPS-treated cells; also recorded: lower mitosox red staining"}, {"measurement": "ROS accumulation (DHE staining intensity)", "setting": "[1]", "result": "alleviated significantly by LGM2605 administration"}, {"measurement": "ROS accumulation (DHE staining intensity)", "setting": "[1]; listed as SDG", "result": "reduced ROS accumulation"}, {"measurement": "cardiac mRNA levels of IL-1α, IL-1β, IL-6, and TNFα", "setting": "IL-1α, IL-1β, IL-6, TNFα", "result": "did not reduce mRNA levels"}, {"measurement": "expression of fatty acid oxidation and glucose metabolism-related genes", "setting": "[2]; CLP mice treated with SDG", "result": "did not restore the expression of fatty acid oxidation and glucose metabolism-related genes"}, {"measurement": "PPARα and LCAD expression", "setting": "[2]; [7]", "result": "did not reverse the CLP-mediated changes in the PPARα and LCAD"}, {"measurement": "cardiac PDK4 mRNA levels", "setting": "[2]; [7]", "result": "This increase was not alleviated by administration of LGM2605"}, {"measurement": "plasma glucose levels", "setting": "[3]; 6 hours and 12 hours post-CLP", "result": "hypoglycemia in septic mice was not alleviated by the administration of LGM2605"}, {"measurement": "plasma triglyceride levels", "setting": "[3]; 12 hours after surgery", "result": "trend of increase, which did not occur in septic mice treated with LGM2605"}]}]}
